Consider two compounds from patent publication US7598258B2, “Quinoline derivatives and quinazoline derivatives inhibiting autophosphorylation of macrophage colony stimulating factor receptor” (Kirin Beer Kabushiki Kaisha, priority 2002, dated 2009).

For the test, the target named is T1, Human KDR (Homo sapiens, UniProt P35968).
T1 construct: expressed in transfected cells; host or cells: NIH3T3 cells (mouse fibroblasts)
Nature of the test: Inhibition of KDR phosphorylation in human KDR-transfected NIH3T3 cells (ELISA).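 As to Selection ratio (KDR phosphorylation IC50 / c-fms phosphorylation IC50): class 2 means ratio of 10 or more and class 3 means 50 or more.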 Type of test: cell-based. The note with it: for Selection ratio (KDR phosphorylation IC50 / c-fms phosphorylation IC50): class 0-3; for IC50: human KDR-transfected NIH3T3 cells, VEGF 100 ng/ml, ELISA, read-out: KDR phosphorylation 50% inhibitory concentration (IC50). The essentials: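 NIH3T3 cells transfected with human KDR, in 0.1% FCS medium, treated with compound 1 hr at 37° C, then stimulated with VEGF 100 ng/ml for 2 min. Lysate KDR phosphorylation measured by anti-phosphotyrosine capture/anti-KDR ELISA (A450); IC50 from inhibition normalized between VEGF-stimulated and unstimulated wells.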

T1 sequence (P35968 20-1356): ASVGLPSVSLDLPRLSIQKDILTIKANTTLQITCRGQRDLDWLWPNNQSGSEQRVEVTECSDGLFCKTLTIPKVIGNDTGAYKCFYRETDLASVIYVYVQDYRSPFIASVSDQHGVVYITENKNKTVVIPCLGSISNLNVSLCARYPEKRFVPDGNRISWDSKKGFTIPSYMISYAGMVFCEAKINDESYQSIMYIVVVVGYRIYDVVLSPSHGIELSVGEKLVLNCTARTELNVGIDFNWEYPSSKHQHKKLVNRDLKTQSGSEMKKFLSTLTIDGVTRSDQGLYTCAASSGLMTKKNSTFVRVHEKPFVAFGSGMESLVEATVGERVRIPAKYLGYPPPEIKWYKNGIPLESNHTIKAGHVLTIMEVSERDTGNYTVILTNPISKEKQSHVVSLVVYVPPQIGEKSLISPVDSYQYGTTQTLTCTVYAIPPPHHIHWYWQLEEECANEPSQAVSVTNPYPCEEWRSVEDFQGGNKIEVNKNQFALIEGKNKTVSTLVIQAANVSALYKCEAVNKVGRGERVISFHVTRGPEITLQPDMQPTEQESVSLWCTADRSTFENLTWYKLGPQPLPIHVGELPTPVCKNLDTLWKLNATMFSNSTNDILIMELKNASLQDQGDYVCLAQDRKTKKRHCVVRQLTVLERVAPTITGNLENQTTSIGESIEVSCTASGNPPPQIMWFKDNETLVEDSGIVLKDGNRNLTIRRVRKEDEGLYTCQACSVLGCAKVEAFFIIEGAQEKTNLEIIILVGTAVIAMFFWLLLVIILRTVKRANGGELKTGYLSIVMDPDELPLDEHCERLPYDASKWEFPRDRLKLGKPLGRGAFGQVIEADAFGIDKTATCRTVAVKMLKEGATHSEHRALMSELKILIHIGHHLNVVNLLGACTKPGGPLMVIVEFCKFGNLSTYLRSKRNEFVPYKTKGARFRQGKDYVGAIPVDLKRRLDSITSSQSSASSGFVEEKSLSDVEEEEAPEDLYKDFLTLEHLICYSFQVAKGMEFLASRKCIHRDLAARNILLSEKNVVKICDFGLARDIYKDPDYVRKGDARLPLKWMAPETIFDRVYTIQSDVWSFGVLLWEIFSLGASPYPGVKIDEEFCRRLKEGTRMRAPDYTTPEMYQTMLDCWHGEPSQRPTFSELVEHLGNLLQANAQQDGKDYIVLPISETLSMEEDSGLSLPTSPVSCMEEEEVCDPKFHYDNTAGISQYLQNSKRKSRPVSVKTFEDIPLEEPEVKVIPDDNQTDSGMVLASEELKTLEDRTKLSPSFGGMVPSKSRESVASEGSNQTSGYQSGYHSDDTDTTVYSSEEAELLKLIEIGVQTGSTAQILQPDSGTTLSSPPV

With `COc1cc2nccc(Oc3ccc(NC(=O)NC(C)c4ncc(C)s4)c(C(F)(F)F)c3)c2cc1OC` (stereo not shown) [Example 104, N-[4-[(6,7-Dimethoxy-4-quinolyl)oxy]-2-(trifluoromethyl)phenyl]-N′-[1-(5-methyl-1,3-thiazol-2-yl)ethyl]urea], the “Selection ratio (KDR phosphorylation IC50 / c-fms phosphorylation IC50)” value is 0 (KDR phosphorylation 50% inhibitory concentration [μM]/c-fms phosphorylation 50% inhibitory concentration [μM] was less than 5) and the IC50 stood at 36.1 nM.

Regarding `COc1cc(Oc2ccnc3cc(OC)c(OC)cc23)ccc1NC(=O)NC(C)c1ncc(C)s1` (stereo not shown) [Example 105, N-{4-[(6,7-Dimethoxy-4-quinolyl)oxy]-2-methoxyphenyl}-N′-[1-(5-methyl-1,3-thiazol-2-yl)ethyl]urea], the “Selection ratio (KDR phosphorylation IC50 / c-fms phosphorylation IC50)” value is on record as 2 (when the value was 10 or more) and the IC50 was found to be 310 nM.
